Data from patent US10111901B2, “Beta-glucan in combination with anti-cancer agents affecting the tumor microenvironment” (Biothera, Inc., priority 2014, dated 2018).

What was measured:
Format in all cases: cell-based, human
[1] = test system: IFN-γ; experiment: IFN-γ ELISA of co-culture supernatants
Description: (§1) CD14^+ monocytes from human whole blood were enriched using Ficoll gradient and magnetic bead separation. Enriched monocytes (5×10^5 cells per mL) were then cultured in either M1-polarizing (XVivo 10 media (Lonza Group) supplemented with 5% autologous serum and 100 ng/mL recombinant human granulocyte macrophage colony-stimulating factor (rhGM-CSF) (R&D Systems) or M2-polarizing (XVivo 10 media supplemented with 10% autologous serum and 50 ng/mL recombinant human macrophage colony-stimulating factor (rhM-CSF) (R&D Systems) conditions for 6 days. In experiments performed to evaluate the effect of β-glucan, whole blood was first incubated with vehicle (sodium citrate buffer) or 25 μg/mL soluble β-glucan for 2 hours at 37° C. and then the monocytes were isolated and differentiated. Morphology was checked before macrophages were harvested for phenotypic analysis. Culture medium of the day 6 macrophage culture (MCM) was collected, spun down to remove contaminated cell pellet and then frozen down for subsequent cytokine analysis by ELISA or used to setup a co-culture with CD3 & CD28-stimulated CD4 T cells (MCM-CD4 T) for evaluation of either surface markers or CD4 T cell proliferation. The macrophages were used to setup a co-culture with CD3 & CD28- or CD3 only-stimulated CD4 T cells (Mac-CD4 T) on day 6 for evaluation of either surface marker modulation or effect on CD4 T cell proliferation. For Mac-CD4 T cell proliferation study, M1 or M2 macrophages were cultured with CD3 & CD28- or CD3 only-stimulated, CFSE-labeled, autologous CD4 T cells at a 1:10 ratio. T cell proliferation was measured at the end of the experiment (day 9-day 11) by flow cytometry, and results are graphically shown as CFSE-dilution peaks. The assessment of CD3-only stimulated T cells was always done on day 11. Quantitative results were reported as the Division Index (the average number of cell divisions a population underwent) calculated for each of the triplicate wells in each of the culture conditions. Culture supernatants of Mac-CD4 T co-cultures were collected for subsequent cytokine analysis.
The culture supernatants from the CFSE dilution T-cell proliferation assay (FIG. 2B) were also measured for IFN-gamma levels by ELISA. […] Thus, β-glucan affects M2 to M1 repolarization and drives anti-tumorigenic Th1 polarization.
Modulation of IFN-γ and IL-4 production of vehicle- and β-glucan-treated M2 macrophages was then evaluated. […] Thus, M2 macrophages derived from β-glucan-treated monocytes are M1-like in high binder subjects.
M2 macrophages from 4 high binders and 4 low binders were prepared and evaluated for their ability to modulate CD4 T cell proliferation. The supernatants from the various CD4 T cell proliferation conditions were measured for IFN-γ by ELISA. Results shown in FIG. 10 are representative from 4 different experiments. Fold change over the IFN-γ levels produced in the co-cultures of vehicle-treated M2 macrophages and CD4 T cells are plotted for each of the 4 donors.

[2] = test system: M2 macrophages; experiment: Flow cytometry of M1/M2-specific markers on M2 macrophages derived from vehicle- or β-glucan-treated whole blood
Description: as §1
(§2) M1 and M2 macrophages from vehicle- or β-glucan-treated whole blood were prepared as described above. […] In addition, surface expression of CD86 was enhanced as well as both protein and mRNA levels of PD-L1 (FIG. 2B).
(§3) Expression of a panel of markers was evaluated by flow cytometry for vehicle- and β-glucan-treated, high binder-derived M1 and M2 macrophages (CD163 was evaluated twice).
(§4) CD163 and CD86 were evaluated by flow cytometry for vehicle- and β-glucan-treated, low binder-derived M1 and M2 macrophages.
(§5) Phenotypic and functional evaluation of β-glucan-treated M2a and β-glucan-treated M2 macrophages in the presence of immunosuppressive cytokines was carried out. M2 or M2a macrophages were prepared as described above. On day 3, tumor-conditioned medium (TCM) was added M2 macrophage cultures to account for 70% of the volume of the culture and then evaluated for CD163 expression and functional activity on day 6. […] M2a macrophages were cultured in IL-4 as described above.
(§6) The β-glucan-treated M2a macrophages cultured in IL-4 and M2 macrophages cultured in TCM were first evaluated for CD163 and CD86 expression. CD163 and CD86 were evaluated by flow cytometry and median MFI was calculated for isotype control staining and surface antigen staining and the results are shown in Table 5.
Monocytes or M2 macrophages were prepared as described above. On day 3, TCM was added to account for 70% of the volume of the culture and then evaluated for PD-L1 expression with TCM and then again when co-cultured with CD4 T cells.

[3] = test system: M2a macrophages; experiment: Flow cytometry of CD163 and CD86 on activated M2a macrophages cultured in IL-4; conditions: M2a macrophages cultured in IL-4, immunosuppressive conditions
Description: Steps for an alternative method for in vitro culture and characterization of human macrophages that includes activation of M1 and M2 macrophages (designated M1a and M2a macrophages) are outlined below. This methodology was used in the next series of experiments.
as §5, §6

[4] = test system: M1 macrophages; experiment: Flow cytometry of M1/M2-specific markers on M1 macrophages derived from vehicle- or β-glucan-treated whole blood
Description: as §1, §2, §3, §4

[5] = M2 macrophages cultured in TCM (70% of volume, from day 3), immunosuppressive conditions
[6] = M2 macrophages, high binder, 25 μg/mL
[7] = M1 macrophages, high binder, 25 μg/mL

## β(1,6)-[poly-(1,3)-D-glucopyranosyl]-poly-β(1,3)-D-glucopyranose [β-glucan]
[1]; M2 macrophage-CD4 T co-culture, FIG. 2D
  IFN-gamma levels in culture supernatants: concomitant increase in IFN-gamma production
[1]; co-cultures of β-glucan-treated M2 macrophages and CD4 T cells, high binders
  IFN-γ production: significantly increased production
[1]; co-cultures under immunosuppressive conditions (TCM, IL-4), FIG. 4
  IFN-γ production: significantly increased production
[1]; co-cultures without exogenous CD28 antibody, FIG. 8B
  IFN-γ production: significantly increased production
[1]; low binder crossed-over with high binder's serum, FIG. 11B
  IFN-γ production: significantly increased production
[1]; β-glucan-treated M2 macrophages, low binders
  IFN-γ production: nor increased IFN-γ production
[2]; [5]
  CD86 median MFI: 2697
  CD163 median MFI: 1112
[2]; [6]
  CD86 median MFI: 2953
  CD163 (1) median MFI: 759
  CD163 (2) median MFI: 1153
  CD206 median MFI: 1056
  CD209 median MFI: 801
  CD274 (PD-L1) median MFI: 4427
  HLA-DR median MFI: 1007
[2]; M2 macrophages, low binder
  CD86 median MFI: 2284
  CD163 median MFI: 3315
[2]; low binders, M1/M2 polarizing conditions (data not shown)
  phenotypic markers on monocyte-derived macrophages: did not modulate
[2]; β-glucan-treated M2 macrophages
  surface expression of CD86: enhanced
[2]; β-glucan-treated M2 macrophages cultured in TCM
  surface expression of PD-L1: higher surface expression
[2]; β-glucan-treated M2 macrophages cultured in TCM (data not shown)
  HLA-DR expression: higher
[2]; β-glucan-treated M2 macrophages in TCM co-cultured with CD4 T cells
  PD-L1 expression: increased expression
[2]; β-glucan-treated M2 macrophages, FIG. 2A
  mean fluorescence intensity (MFI) of CD163: downmodulated
[2]; β-glucan-treated M2 macrophages, FIG. 2B
  protein and mRNA levels of PD-L1: enhanced
[3]
  CD86 median MFI: 4572
  CD163 median MFI: 309
[4]; [7]
  CD86 median MFI: 2113
  CD163 (1) median MFI: 158
  CD163 (2) median MFI: 230
  CD206 median MFI: 816
  CD209 median MFI: 318
  CD274 (PD-L1) median MFI: 5563
[4]; M1 macrophages, high binder, whole blood treated with 25 μg/mL soluble β-glucan 2 hours
  HLA-DR median MFI: 667
[4]; M1 macrophages, low binder
  CD86 median MFI: 3179
  CD163 median MFI: 132
[4]; β-glucan pretreatment of whole blood
  M1 macrophage phenotype (panel of M1/M2-specific markers): did not affect M1 macrophage phenotype
